Reference: patent US20230114728A1 (Venatorx Pharmaceuticals, Inc., priority 2019, published 2023)
In brackets after ≈: the same amount, converted by molar mass. Where two headings read alike, the source gives them in different places.

Experiments:
Assay type in all cases: cell-based
E. coli AG100A = experiment: Broth microdilution MIC in CAMHB; conditions: Escherichia coli, read-out: Minimum Inhibitory Concentration, E. coli AG100A
Outline: (§1)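 Lowest compound concentration with no visible growth after 16-20 h at 37 °C defines MIC. Plates of 2-fold serial dilutions in cation-adjusted Mueller Hinton broth received 2-8×10^5 CFU/mL of exponentially grown cells, per CLSI methods; panel spans reference, hyper-permeable and efflux-pump-deleted strains.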

E. coli D22 = experiment: Broth microdilution MIC in CAMHB; conditions: Escherichia coli
Outline: as §1

E. coli ATCC 25922 = experiment: Broth microdilution MIC in CAMHB; conditions: Escherichia coli
Outline: as §1

[1] = tested on: P. aeruginosa (ΔmexAB-oprM); experiment: Broth microdilution MIC in CAMHB; conditions: Pseudomonas aeruginosa, read-out: Minimum Inhibitory Concentration, P. aeruginosa ΔmexAB-OprM
Outline: as §1

N. gonorrhoeae FA1090 = experiment: Liquid broth MIC in Fastidious broth; conditions: Neisseria gonorrhoeae
Outline: (§2)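 Colonies were swabbed from chocolate agar after 24 h growth and standardised by optical density at 600 nm. Compounds were serially diluted twofold in Fastidious broth, and bacteria added to give 5×10^5 CFU/mL. After about 24 h at 36 °C in 5% CO2, the lowest concentration allowing under 10% growth was taken as MIC.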

[2] = tested on: N. gonorrhoeae ATCC 49226; experiment: Liquid broth MIC in Fastidious broth; conditions: Neisseria gonorrhoeae
Outline: as §2

N. gonorrhoeae WHO K = experiment: Liquid broth MIC in Fastidious broth; conditions: Neisseria gonorrhoeae, read-out: Minimum Inhibitory Concentration, N. gonorrhoeae WHO K
Outline: as §2

N. gonorrhoeae WHO G = experiment: Liquid broth MIC in Fastidious broth; conditions: Neisseria gonorrhoeae, read-out: Minimum Inhibitory Concentration, N. gonorrhoeae WHO G
Outline: as §2

N. gonorrhoeae WHO L = experiment: Liquid broth MIC in Fastidious broth; conditions: Neisseria gonorrhoeae, read-out: Minimum Inhibitory Concentration, N. gonorrhoeae WHO L
Outline: as §2

N. gonorrhoeae H041 = experiment: Liquid broth MIC in Fastidious broth; conditions: Neisseria gonorrhoeae, H041, read-out: Minimum Inhibitory Concentration, N. gonorrhoeae H041
Outline: as §2

[3] = E. coli D22 (hyper-permeable), MHB, read-out: Minimum Inhibitory Concentration, E. coli D22
[4] = ATCC25922, E. coli ATCC 25922, MHB, read-out: Minimum Inhibitory Concentration, E. coli 25922
[5] = N. gonorrhoeae strain FA1090, Fastidious broth, read-out: Minimum Inhibitory Concentration, N. gonorrhoeae FA1090
[6] = ATCC49226, N. gonorrhoeae strain ATCC 49226, Fastidious broth, read-out: Minimum Inhibitory Concentration, N. gonorrhoeae ATCC 49226
[7] = N. gonorrhoeae strain WHO G, Fastidious broth
[8] = N. gonorrhoeae strain WHO L, Fastidious broth

Compound	MIC (E. coli AG100A) [µg/mL]	MIC (E. coli D22; [3]) [µg/mL]	MIC (E. coli ATCC 25922; [4]) [µg/mL]	MIC [1] [µg/mL]	MIC (N. gonorrhoeae FA1090; [5]) [µg/mL]	MIC [2, 6] [µg/mL]	MIC (N. gonorrhoeae WHO K) [µg/mL]	MIC (N. gonorrhoeae WHO G; [7]) [µg/mL]	MIC (N. gonorrhoeae WHO L; [8]) [µg/mL]	MIC (N. gonorrhoeae H041) [µg/mL]	MIC (E. coli D22; D22, read-out: Minimum Inhibitory Concentration, E. coli D22) [µg/mL]	MIC (E. coli ATCC 25922; ATCC25922, read-out: Minimum Inhibitory Concentration, E. coli 25922) [µg/mL]	MIC (N. gonorrhoeae FA1090; FA1090, read-out: Minimum Inhibitory Concentration, N. gonorrhoeae FA1090) [µg/mL]	MIC ([2]; ATCC49226, read-out: Minimum Inhibitory Concentration, N. gonorrhoeae ATCC 49226) [µg/mL]	MIC (N. gonorrhoeae WHO G) [µg/mL]	MIC (N. gonorrhoeae WHO L) [µg/mL]
CCN1CCN(C(=O)NC(C(=O)N[C@H]2Cc3cccc(C(=O)O)c3OB2O)c2ccc(O)cc2O)C(=O)C1=O (stereo partly drawn) [Example 69, (3R)-3-(2-(2,4-dihydroxyphenyl)-2-(4-ethyl-2,3-dioxopiperazine-1-carboxamido)acetamido)-2-hydroxy-3,4-dihydro-2H-benzo[e][1,2]oxaborinine-8-carboxylic acid]	2 to 4 (≈ 3.7 to 7.4 µM)	2 to 4 (≈ 3.7 to 7.4 µM)	32 to 64 (≈ 59.2 to 118 µM)	32 to 64 (≈ 59.2 to 118 µM)	0.25 to 0.5 (≈ 0.463 to 0.925 µM)	4 to 8 (≈ 7.4 to 14.8 µM)	> 64	4 to 8 (≈ 7.4 to 14.8 µM)	16 to 32 (≈ 29.6 to 59.2 µM)	> 64	–	–	–	–	–	–
NC(=O)c1ccc(C(NC(=O)N2CCN(CCF)C(=O)C2=O)C(=O)N[C@H]2Cc3cccc(C(=O)O)c3OB2O)cc1O (stereo partly drawn) [Example 46, (3R)-3-(2-(4-carbamoyl-3-hydroxyphenyl)-2-(4-(2-fluoroethyl)-2,3-dioxopiperazine-1-carboxamido)acetamido)-2-hydroxy-3,4-dihydro-2H-benzo[e][1,2]oxaborinine-8-carboxylic acid]	2 to 4 (≈ 3.42 to 6.83 µM)	< 0.25	32 to 64 (≈ 54.7 to 109 µM)	2 to 4 (≈ 3.42 to 6.83 µM)	< 0.125	1 to 2 (≈ 1.71 to 3.42 µM)	16 to 32 (≈ 27.3 to 54.7 µM)	0.25 to 0.5 (≈ 0.427 to 0.854 µM)	16 to 32 (≈ 27.3 to 54.7 µM)	16 to 32 (≈ 27.3 to 54.7 µM)	–	–	–	–	–	–
CCN1CCN(C(=O)NC(C(=O)N[C@H]2Cc3cccc(C(=O)O)c3OB2O)c2ccc(O)c(NS(C)(=O)=O)c2)C(=O)C1=O (stereo partly drawn) [Example 22, (3R)-3-(2-(4-ethyl-2,3-dioxopiperazine-1-carboxamido)-2-(4-hydroxy-3-(methylsulfonamido)phenyl)acetamido)-2-hydroxy-3,4-dihydro-2H-benzo[e][1,2]oxaborinine-8-carboxylic acid]	2 to 4 (≈ 3.24 to 6.48 µM)	2 to 4 (≈ 3.24 to 6.48 µM)	32 to 64 (≈ 51.8 to 104 µM)	8 to 16 (≈ 13 to 25.9 µM)	1 to 2 (≈ 1.62 to 3.24 µM)	> 64	> 64	16 to 32 (≈ 25.9 to 51.8 µM)	> 64	> 64	–	–	–	–	–	–
NCCN1CCN(C(=O)N[C@H](C(=O)N[C@H]2Cc3cccc(C(=O)O)c3OB2O)c2ccc(C(=O)O)cc2)C(=O)C1=O (single isomer, unassigned) [Example 83]	8 to 16 (≈ 14.1 to 28.2 µM)	2 to 4 (≈ 3.53 to 7.05 µM)	32 to 64 (≈ 56.4 to 113 µM)	8 to 16 (≈ 14.1 to 28.2 µM)	1 to 2 (≈ 1.76 to 3.53 µM)	16 to 32 (≈ 28.2 to 56.4 µM)	> 64	4 to 8 (≈ 7.05 to 14.1 µM)	> 64	> 64	–	–	–	–	–	–
NCCN1CCN(C(=O)N[C@@H](C(=O)N[C@H]2Cc3cccc(C(=O)O)c3OB2O)c2ccc(O)cc2Cl)C(=O)C1=O (single isomer, unassigned) [Example 86]	2 to 4 (≈ 3.49 to 6.97 µM)	8 to 16 (≈ 13.9 to 27.9 µM)	32 to 64 (≈ 55.8 to 112 µM)	8 to 16 (≈ 13.9 to 27.9 µM)	1 to 2 (≈ 1.74 to 3.49 µM)	> 64	> 64	4 to 8 (≈ 6.97 to 13.9 µM)	> 64	> 64	–	–	–	–	–	–
CCN1CCN(C(=O)NC(C(=O)N[C@H]2Cc3cccc(C(=O)O)c3OB2O)c2cccc(NC(=O)c3ccc(O)c(O)c3Cl)c2)C(=O)C1=O (stereo partly drawn) [Example 73, (3R)-3-(2-(3-(2-chloro-3,4-dihydroxybenzamido)phenyl)-2-(4-ethyl-2,3-dioxopiperazine-1-carboxamido)acetamido)-2-hydroxy-3,4-dihydro-2H-benzo[e][1,2]oxaborinine-8-carboxylic acid]	2 to 4 (≈ 2.88 to 5.76 µM)	2 to 4 (≈ 2.88 to 5.76 µM)	2 to 4 (≈ 2.88 to 5.76 µM)	0.5 to 1 (≈ 0.721 to 1.44 µM)	1 to 2 (≈ 1.44 to 2.88 µM)	> 64	> 64	16 to 32 (≈ 23.1 to 46.1 µM)	> 64	> 64	–	–	–	–	–	–
NCCCN1CCN(C(=O)NC(C(=O)N[C@H]2Cc3cccc(C(=O)O)c3OB2O)c2ccc(C(N)=O)c(O)c2)C(=O)C1=O (stereo partly drawn) [Example 47, (3R)-3-(2-(4-(3-aminopropyl)-2,3-dioxopiperazine-1-carboxamido)-2-(4-carbamoyl-3-hydroxyphenyl)acetamido)-2-hydroxy-3,4-dihydro-2H-benzo[e][1,2]oxaborinine-8-carboxylic acid]	2 to 4 (≈ 3.35 to 6.71 µM)	2 to 4 (≈ 3.35 to 6.71 µM)	> 128	2 to 4 (≈ 3.35 to 6.71 µM)	0.25 to 0.5 (≈ 0.419 to 0.838 µM)	4 to 8 (≈ 6.71 to 13.4 µM)	> 64	4 to 8 (≈ 6.71 to 13.4 µM)	> 64	> 64	–	–	–	–	–	–
N[C@@H](C(=O)N[C@H]1Cc2ccc(F)c(C(=O)O)c2OB1O)c1ccc(OS(=O)(=O)F)cc1 [Example 32, (R)-3-((R)-2-amino-2-(4-((fluorosulfonyl)oxy)phenyl)acetamido)-7-fluoro-2-hydroxy-3,4-dihydro-2H-benzo[e][1,2]oxaborinine-8-carboxylic acid]	> 128	–	–	> 128	–	–	> 64	–	–	> 64	> 128	> 128	> 64	> 64	> 64	> 64
NCCCN1CCN(C(=O)NC(C(=O)N[C@H]2Cc3cccc(C(=O)O)c3OB2O)c2ccc(C(=O)O)cc2)C(=O)C1=O (stereo partly drawn) [Example 39, (3R)-3-(2-(4-(3-aminopropyl)-2,3-dioxopiperazine-1-carboxamido)-2-(4-carboxyphenyl)acetamido)-2-hydroxy-3,4-dihydro-2H-benzo[e][1,2]oxaborinine-8-carboxylic acid]	8 to 16 (≈ 13.8 to 27.5 µM)	2 to 4 (≈ 3.44 to 6.88 µM)	8 to 16 (≈ 13.8 to 27.5 µM)	8 to 16 (≈ 13.8 to 27.5 µM)	1 to 2 (≈ 1.72 to 3.44 µM)	4 to 8 (≈ 6.88 to 13.8 µM)	> 64	4 to 8 (≈ 6.88 to 13.8 µM)	16 to 32 (≈ 27.5 to 55 µM)	> 64	–	–	–	–	–	–
CCN1CCN(C(=O)NC(C(=O)N[C@H]2Cc3cccc(C(=O)O)c3OB2O)c2cccc(NC(=O)c3cccnc3)c2)C(=O)C1=O (stereo partly drawn) [Example 97, (3R)-3-(2-(4-ethyl-2,3-dioxopiperazine-1-carboxamido)-2-(3-(nicotinamido)phenyl)acetamido)-2-hydroxy-3,4-dihydro-2H-benzo[e][1,2]oxaborinine-8-carboxylic acid]	8 to 16 (≈ 12.7 to 25.5 µM)	8 to 16 (≈ 12.7 to 25.5 µM)	> 128	32 to 64 (≈ 50.9 to 102 µM)	1 to 2 (≈ 1.59 to 3.18 µM)	> 64	> 64	4 to 8 (≈ 6.37 to 12.7 µM)	> 64	> 64	–	–	–	–	–	–
CCN1CCN(C(=O)N[C@H](C(=O)N[C@H]2Cc3cccc(C(=O)O)c3OB2O)c2cc(O)cc(O)c2)C(=O)C1=O (single isomer, unassigned) [Example 81]	8 to 16 (≈ 14.8 to 29.6 µM)	8 to 16 (≈ 14.8 to 29.6 µM)	32 to 64 (≈ 59.2 to 118 µM)	32 to 64 (≈ 59.2 to 118 µM)	0.25 to 0.5 (≈ 0.463 to 0.925 µM)	4 to 8 (≈ 7.4 to 14.8 µM)	16 to 32 (≈ 29.6 to 59.2 µM)	0.25 to 0.5 (≈ 0.463 to 0.925 µM)	16 to 32 (≈ 29.6 to 59.2 µM)	16 to 32 (≈ 29.6 to 59.2 µM)	–	–	–	–	–	–
O=C(NC(C(=O)N[C@H]1Cc2ccc(F)c(C(=O)O)c2OB1O)c1ncc(O)cc1F)c1ccnc(F)c1 (stereo partly drawn) [Example 53, (3R)-7-fluoro-3-(2-(3-fluoro-5-hydroxypyridin-2-yl)-2-(2-fluoroisonicotinamido)acetamido)-2-hydroxy-3,4-dihydro-2H-benzo[e][1,2]oxaborinine-8-carboxylic acid]	> 128	> 128	> 128	–	4 to 8 (≈ 7.75 to 15.5 µM)	> 64	> 64	> 64	> 64	> 64	–	–	–	–	–	–
O=C(O)c1ccc(C(NC(=O)N2CCN(CCNC(=O)c3ccc(O)c(O)c3Cl)C(=O)C2=O)C(=O)N[C@H]2Cc3ccc(F)c(C(=O)O)c3OB2O)cc1F (stereo partly drawn) [Example 11, (3R)-3-(2-(4-carboxy-3-fluorophenyl)-2-(4-(2-(2-chloro-3,4-dihydroxybenzamido)ethyl)-2,3-dioxopiperazine-1-carboxamido)acetamido)-7-fluoro-2-hydroxy-3,4-dihydro-2H-benzo[e][1,2]oxaborinine-8-carboxylic acid]	2 to 4 (≈ 2.58 to 5.17 µM)	8 to 16 (≈ 10.3 to 20.7 µM)	32 to 64 (≈ 41.4 to 82.7 µM)	–	1 to 2 (≈ 1.29 to 2.58 µM)	16 to 32 (≈ 20.7 to 41.4 µM)	> 64	4 to 8 (≈ 5.17 to 10.3 µM)	> 64	> 64	–	–	–	–	–	–
